Measurements as given in patent publication US20250353891A1 (MEDIMMUNE LIMITED, priority 2022, published 2025).
pEC50: −log10 of the molar value. Starred links: 1 amine or outer side, 2 acyl side, 3 side chain; linkers in the order of their positions; H or OH if unused. Non-standard residues stand in square brackets, D forms with d. Residues, ends and D or L forms follow the SMILES beside them. Groups on a side chain read outwards from the residue. *: point of attachment. C18 diacid = O=C(O)CCCCCCCCCCCCCCCCC(=O)*; γGlu = O=C(O)[C@H](CCC(=O)[*:2])N[*:1]; αMeF = C[C@](N)(Cc1ccccc1)C(=O)O; Ac4c = NC1(C(=O)O)CCC1; AEEA = NCCOCCOCC(=O)O; Ac3c = NC1(C(=O)O)CC1; Aib = CC(C)(N)C(=O)O

Key:
[1] = molecular target: human glucagon receptor (hGCGR) (Homo sapiens, UniProt P47871); experiment: cAMP production (HTRF) in CHO cells expressing hGCGR; assay type: cell-based; parameters: expressed in transfected cells; conditions: Table 7, peptides modified at position 20; cAMP in CHO hGCGR cells; geometric mean; read-out: hGluc-R EC50
Procedure, shortened: (§1)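 Read-out: HTRF cAMP (anti-cAMP cryptate donor, cAMP-d2 acceptor in conjugate/lysis buffer), converted to % Delta F and fitted by 4-parameter logistic for EC50. Cell densities were 1×10^5 cells/mL (hGLP-1R) or 2×10^5 cells/mL (hGCGR). Stimulation lasted 30 min at room temperature.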

[2] = molecular target: human GLP-1 receptor (hGLP-1R) (Homo sapiens, UniProt P43220); experiment: cAMP production (HTRF) in CHO cells expressing hGLP-1R; assay type: cell-based; parameters: expressed in transfected cells; conditions: for pEC50: Table 7, peptides modified at position 20, cAMP in CHO hGLP-1R cells, geometric mean, read-out: hGLP-1R EC50; for % Relative Potency Ratio: Table 7, % GLP-1R activity relative to GLP-1 / % GlucR activity relative to glucagon
Procedure, shortened: as §1

Sequence of human GLP-1 receptor (hGLP-1R) (P43220 24-463): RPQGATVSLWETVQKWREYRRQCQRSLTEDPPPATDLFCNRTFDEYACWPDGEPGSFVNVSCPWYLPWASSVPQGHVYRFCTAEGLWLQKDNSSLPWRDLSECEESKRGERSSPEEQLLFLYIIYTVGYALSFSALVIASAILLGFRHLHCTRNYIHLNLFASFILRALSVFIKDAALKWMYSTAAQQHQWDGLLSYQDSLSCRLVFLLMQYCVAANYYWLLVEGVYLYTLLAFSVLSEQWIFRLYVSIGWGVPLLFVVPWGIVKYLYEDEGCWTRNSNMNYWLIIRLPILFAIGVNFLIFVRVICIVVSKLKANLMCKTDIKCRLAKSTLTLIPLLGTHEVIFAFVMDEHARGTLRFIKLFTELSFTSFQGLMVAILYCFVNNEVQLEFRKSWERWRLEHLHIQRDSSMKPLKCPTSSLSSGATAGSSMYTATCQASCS
Sequence of human glucagon receptor (hGCGR) (P47871 26-477): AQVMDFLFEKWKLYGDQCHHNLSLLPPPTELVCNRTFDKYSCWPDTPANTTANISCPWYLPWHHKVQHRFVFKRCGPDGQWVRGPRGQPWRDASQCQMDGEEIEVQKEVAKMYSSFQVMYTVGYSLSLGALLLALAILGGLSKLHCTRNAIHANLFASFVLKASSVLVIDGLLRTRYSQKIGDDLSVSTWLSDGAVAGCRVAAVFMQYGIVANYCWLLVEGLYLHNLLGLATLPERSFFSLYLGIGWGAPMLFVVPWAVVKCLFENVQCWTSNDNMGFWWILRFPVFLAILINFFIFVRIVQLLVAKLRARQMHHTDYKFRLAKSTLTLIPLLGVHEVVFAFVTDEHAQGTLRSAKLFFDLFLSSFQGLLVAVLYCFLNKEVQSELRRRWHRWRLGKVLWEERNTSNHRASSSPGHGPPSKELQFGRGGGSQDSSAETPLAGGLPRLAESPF

| SMILES | pEC50 [1] | pEC50 [2] | % Relative Potency Ratio [2] |
| --- | --- | --- | --- |
| CC[C@H](C)[C@H](NC(=O)C(C)(C)NC(=O)[C@H](CCC(N)=O)NC(=O)[C@@H](NC(=O)[C@](C)(Cc1ccccc1)NC(=O)[C@H](CC(=O)O)NC(=O)[C@H](CCCCNC(=O)COCCOCCNC(=O)COCCOCCNC(=O)CC[C@H](NC(=O)CCCCCCCCCCCCCCCCC(=O)O)C(=O)O)NC(=O)[C@H](C)NC(=O)[C@H](C)NC(=O)[C@H](CCCNC(=N)N)NC(=O)[C@H](CO)NC(=O)[C@H](CC(=O)O)NC(=O)[C@H](CC(C)C)NC(=O)[C@](C)(Cc1ccccc1)NC(=O)[C@H](CCCCN)NC(=O)[C@H](CO)NC(=O)[C@@H](NC(=O)[C@H](CC(=O)O)NC(=O)[C@H](CO)NC(=O)[C@@H](NC(=O)[C@](C)(Cc1ccccc1)NC(=O)[C@H](CO)NC(=O)CNC(=O)[C@@H](CCC(N)=O)NC(=O)[C@H](CO)NC(=O)[C@@H](N)Cc1c[nH]cn1)[C@@H](C)O)C(C)C)C(C)C)C(=O)N[C@@H](C)C(=O)N[C@@H](CC(N)=O)C(=O)N[C@H](C(N)=O)[C@@H](C)O [Peptide 326] (H-HS[dQ]GS[αMeF]TSDVSK[αMeF]LDSRAAK([AEEA-AEEA-γGlu-C18 diacid])D[αMeF]VQ[Aib]IANT-NH2) | < 7.59 | 8.17 |  |
| CC[C@H](C)[C@H](NC(=O)C(C)(C)NC(=O)[C@H](CCC(N)=O)NC(=O)[C@@H](NC(=O)[C@](C)(Cc1ccccc1)NC(=O)[C@H](CC(=O)O)NC(=O)[C@H](CCCCNC(=O)COCCOCCNC(=O)COCCOCCNC(=O)CC[C@H](NC(=O)CCCCCCCCCCCCCCCCC(=O)O)C(=O)O)NC(=O)[C@H](C)NC(=O)[C@H](C)NC(=O)[C@H](CCCNC(=N)N)NC(=O)[C@H](CO)NC(=O)[C@H](CC(=O)O)NC(=O)[C@H](CC(C)C)NC(=O)[C@](C)(Cc1ccccc1)NC(=O)[C@H](CCCCN)NC(=O)[C@H](CO)NC(=O)[C@@H](NC(=O)[C@H](CC(=O)O)NC(=O)[C@H](CO)NC(=O)[C@@H](NC(=O)[C@](C)(Cc1ccccc1)NC(=O)[C@H](CO)NC(=O)CNC(=O)[C@H](CCC(N)=O)NC(=O)C1(NC(=O)[C@@H](N)Cc2c[nH]cn2)CC1)[C@@H](C)O)C(C)C)C(C)C)C(=O)N[C@@H](C)C(=O)N[C@@H](CC(N)=O)C(=O)N[C@H](C(N)=O)[C@@H](C)O [Peptide 327] (H-H[Ac3c]QGS[αMeF]TSDVSK[αMeF]LDSRAAK([AEEA-AEEA-γGlu-C18 diacid])D[αMeF]VQ[Aib]IANT-NH2) | < 7.59 | 10.52 |  |
| CC[C@H](C)[C@H](NC(=O)C(C)(C)NC(=O)[C@H](CCC(N)=O)NC(=O)[C@@H](NC(=O)[C@](C)(Cc1ccccc1)NC(=O)[C@H](CC(=O)O)NC(=O)[C@H](CCCCNC(=O)COCCOCCNC(=O)COCCOCCNC(=O)CC[C@H](NC(=O)CCCCCCCCCCCCCCCCC(=O)O)C(=O)O)NC(=O)[C@H](C)NC(=O)[C@H](C)NC(=O)[C@H](CCCNC(=N)N)NC(=O)[C@H](CO)NC(=O)[C@H](CC(=O)O)NC(=O)[C@H](CC(C)C)NC(=O)[C@](C)(Cc1ccccc1)NC(=O)[C@H](CCCCN)NC(=O)[C@H](CO)NC(=O)[C@@H](NC(=O)[C@H](CC(=O)O)NC(=O)[C@H](CO)NC(=O)[C@@H](NC(=O)[C@](C)(Cc1ccccc1)NC(=O)[C@H](CO)NC(=O)CNC(=O)[C@H](CCC(N)=O)NC(=O)C1(NC(=O)[C@@H](N)Cc2c[nH]cn2)CCC1)[C@@H](C)O)C(C)C)C(C)C)C(=O)N[C@@H](C)C(=O)N[C@@H](CC(N)=O)C(=O)N[C@H](C(N)=O)[C@@H](C)O [Peptide 328] (H-H[Ac4c]QGS[αMeF]TSDVSK[αMeF]LDSRAAK([AEEA-AEEA-γGlu-C18 diacid])D[αMeF]VQ[Aib]IANT-NH2; N-terminus assumed) | 8.77 | 10.81 | 218.8 |
| CC[C@H](C)[C@H](NC(=O)C(C)(C)NC(=O)[C@H](CCC(N)=O)NC(=O)[C@@H](NC(=O)[C@](C)(Cc1ccccc1)NC(=O)[C@H](CC(=O)O)NC(=O)[C@H](CCCCNC(=O)COCCOCCNC(=O)COCCOCCNC(=O)CC[C@H](NC(=O)CCCCCCCCCCCCCCCCC(=O)O)C(=O)O)NC(=O)[C@H](C)NC(=O)[C@H](C)NC(=O)[C@H](CCCNC(=N)N)NC(=O)[C@H](CO)NC(=O)[C@H](CC(=O)O)NC(=O)[C@H](CC(C)C)NC(=O)[C@](C)(Cc1ccccc1)NC(=O)[C@H](CCCCN)NC(=O)[C@H](CO)NC(=O)[C@@H](NC(=O)[C@H](CC(=O)O)NC(=O)[C@H](CO)NC(=O)[C@@H](NC(=O)[C@](C)(Cc1ccccc1)NC(=O)[C@H](CO)NC(=O)CNC(=O)[C@H](CCC(N)=O)NC(=O)[C@@H](CO)NC(=O)[C@@H](N)Cc1c[nH]cn1)[C@@H](C)O)C(C)C)C(C)C)C(=O)N[C@@H](C)C(=O)N[C@@H](CC(N)=O)C(=O)N[C@H](C(N)=O)[C@@H](C)O [Peptide 330] (H-H[dS]QGS[αMeF]TSDVSK[αMeF]LDSRAAK([AEEA-AEEA-γGlu-C18 diacid])D[αMeF]VQ[Aib]IANT-NH2) | < 7.59 | 9.31 |  |

Second part, the compound after the results:

| pEC50 [1] | pEC50 [2] | % Relative Potency Ratio [2] | SMILES |
| --- | --- | --- | --- |
| 10.18 | 10.20 | 2.1 | CC(C)C[C@H](NC(=O)[C@H](Cc1c[nH]c2ccccc12)NC(=O)[C@H](CCCNC(=N)N)NC(=O)[C@@H](NC(=O)[C@H](Cc1ccccc1)NC(=O)[C@H](CC(=O)O)NC(=O)[C@H](CCCCNC(=O)COCCOCCNC(=O)COCCOCCNC(=O)CC[C@H](NC(=O)CCCCCCCCCCCCCCCCC(=O)O)C(=O)O)NC(=O)[C@H](C)NC(=O)[C@H](CCCNC(=N)N)NC(=O)[C@H](CCCNC(=N)N)NC(=O)[C@H](CO)NC(=O)[C@H](CC(=O)O)NC(=O)[C@H](CC(C)C)NC(=O)[C@](C)(Cc1ccccc1)NC(=O)[C@H](CCCCN)NC(=O)[C@H](CO)NC(=O)[C@@H](NC(=O)[C@H](CC(=O)O)NC(=O)[C@H](CO)NC(=O)[C@@H](NC(=O)[C@H](Cc1ccccc1)NC(=O)[C@@H](NC(=O)CNC(=O)[C@H](CCC(N)=O)NC(=O)C(C)(C)NC(=O)[C@@H](N)Cc1c[nH]cn1)[C@@H](C)O)[C@@H](C)O)C(C)C)C(C)C)C(=O)N[C@@H](CC(C)C)C(=O)N[C@@H](CCC(=O)O)C(=O)NC(C)(C)C(=O)NCC(=O)O [Peptide 331] |
| 10.23 | 10.11 | 1.5 | CC(C)C[C@H](NC(=O)[C@H](Cc1c[nH]c2ccccc12)NC(=O)[C@H](CCC(N)=O)NC(=O)[C@@H](NC(=O)[C@H](Cc1ccccc1)NC(=O)[C@H](CC(=O)O)NC(=O)[C@H](CCCCNC(=O)COCCOCCNC(=O)COCCOCCNC(=O)CC[C@H](NC(=O)CCCCCCCCCCCCCCCCC(=O)O)C(=O)O)NC(=O)[C@H](C)NC(=O)[C@H](CCCNC(=N)N)NC(=O)[C@H](CCCNC(=N)N)NC(=O)[C@H](CO)NC(=O)[C@H](CC(=O)O)NC(=O)[C@H](CC(C)C)NC(=O)[C@](C)(Cc1ccccc1)NC(=O)[C@H](CCCCN)NC(=O)[C@H](CO)NC(=O)[C@@H](NC(=O)[C@H](CC(=O)O)NC(=O)[C@H](CO)NC(=O)[C@@H](NC(=O)[C@H](Cc1ccccc1)NC(=O)[C@@H](NC(=O)CNC(=O)[C@H](CCC(N)=O)NC(=O)C(C)(C)NC(=O)[C@@H](N)Cc1c[nH]cn1)[C@@H](C)O)[C@@H](C)O)C(C)C)C(C)C)C(=O)N[C@@H](CC(C)C)C(=O)N[C@@H](CCC(=O)O)C(=O)NC(C)(C)C(=O)NCC(=O)O [Peptide 332] |
